Assay: Linezolid concentration in blood plasma of beagle dogs after rectal administration of one suppository
Type: in vivo
Details: dog, other: rectal
Procedure: One 20 mg linezolid suppository prepared as above was rectally administered to each of four beagle dogs, and the concentration of linezolid in blood plasma of the dogs was determined at different times after administration, as presented in Table 2.
One 600 mg linezolid suppository prepared as above was rectally administered to each of four beagle dogs and the concentration of linezolid in blood plasma of the dogs was determined at different times after administration, as presented in Table 3.

[1] = 20 mg, Example 2 solution suppository, 20 mg linezolid, Dog 1 (15.2 kg)
[2] = 20 mg, Example 2 solution suppository, 20 mg linezolid, Dog 2 (13.7 kg)
[3] = 20 mg, Example 2 solution suppository, 20 mg linezolid, Dog 3 (10.5 kg)
[4] = 20 mg, Example 2 solution suppository, 20 mg linezolid, Dog 4 (12.2 kg)
[5] = 600 mg, Example 5 particulate dispersion suppository, 600 mg linezolid, Dog 1 (15.0 kg)
[6] = 600 mg, Example 5 particulate dispersion suppository, 600 mg linezolid, Dog 2 (13.4 g)
[7] = 600 mg, Example 5 particulate dispersion suppository, 600 mg linezolid, Dog 3 (10.1 kg)
[8] = 600 mg, Example 5 particulate dispersion suppository, 600 mg linezolid, Dog 4 (12.5 kg)

Compound `CC(=O)NC[C@H]1CN(c2ccc(N3CCOCC3)c(F)c2)C(=O)O1` [Linezolid, (S)-N-[[3-[3-fluoro-4-(4-morpholinyl)phenyl]-2-oxo-5-oxazolidinyl]methyl]acetamide] has a concentration at 0.25 h [1] of 47.6 ng/mL, a concentration at 0.5 h [1] of 132 ng/mL and a concentration at 0.75 h [1] of 168 ng/mL. For the same compound, the concentration at 1 h [1] was 209 ng/mL, the concentration at 1.5 h [1] was 267 ng/mL and the concentration at 2 h [1] was 354 ng/mL. The concentration at 2.5 h [1] was 417 ng/mL, the concentration at 3 h [1] was 364 ng/mL and the concentration at 0.25 h [2] was 54.6 ng/mL. It also gave a concentration at 0.5 h [2] of 136 ng/mL, a concentration at 0.75 h [2] of 189 ng/mL and a concentration at 1 h [2] of 197 ng/mL. It also gave a concentration at 1.5 h [2] of 179 ng/mL, a concentration at 2 h [2] of 238 ng/mL and a concentration at 2.5 h [2] of 171 ng/mL. It also gave a concentration at 3 h [2] of 146 ng/mL, a concentration at 0.25 h [3] of 134 ng/mL and a concentration at 0.5 h [3] of 305 ng/mL. For the same compound, the concentration at 0.75 h [3] was 340 ng/mL, the concentration at 1 h [3] was 388 ng/mL and the concentration at 1.5 h [3] was 423 ng/mL. For the same compound, the concentration at 2 h [3] was 351 ng/mL, the concentration at 2.5 h [3] was 331 ng/mL and the concentration at 3 h [3] was 317 ng/mL. The concentration at 0.25 h [4] was 80.7 ng/mL, the concentration at 0.5 h [4] was 204 ng/mL and the concentration at 0.75 h [4] was 291 ng/mL. The concentration at 1 h [4] was 394 ng/mL, the concentration at 1.5 h [4] was 532 ng/mL and the concentration at 2 h [4] was 548 ng/mL. The concentration at 2.5 h [4] was 550 ng/mL, the concentration at 3 h [4] was 556 ng/mL and the concentration at 0.25 h [5] was 1110 ng/mL. The concentration at 0.5 h [5] was 2250 ng/mL, the concentration at 0.75 h [5] was 3840 ng/mL and the concentration at 1 h [5] was 5010 ng/mL. It also gave a concentration at 1.5 h [5] of 6260 ng/mL, a concentration at 2 h [5] of 7230 ng/mL and a concentration at 2.5 h [5] of 7980 ng/mL. It also gave a concentration at 3 h [5] of 8480 ng/mL, a concentration at 0.25 h [6] of 770 ng/mL and a concentration at 0.5 h [6] of 1240 ng/mL. It also gave a concentration at 0.75 h [6] of 1940 ng/mL, a concentration at 1 h [6] of 2610 ng/mL and a concentration at 1.5 h [6] of 3490 ng/mL. For the same compound, the concentration at 2 h [6] was 3570 ng/mL, the concentration at 2.5 h [6] was 5010 ng/mL and the concentration at 3 h [6] was 4730 ng/mL. For the same compound, the concentration at 0.25 h [7] was 444 ng/mL, the concentration at 0.5 h [7] was 1110 ng/mL and the concentration at 0.75 h [7] was 1680 ng/mL. The concentration at 1 h [7] was 2540 ng/mL, the concentration at 1.5 h [7] was 3460 ng/mL and the concentration at 2 h [7] was 4840 ng/mL. The concentration at 2.5 h [7] was 5510 ng/mL, the concentration at 3 h [7] was 6570 ng/mL and the concentration at 0.25 h [8] was 1100 ng/mL. For the same compound, the concentration at 0.5 h [8] was 1720 ng/mL, the concentration at 0.75 h [8] was 1930 ng/mL and the concentration at 1 h [8] was 2640 ng/mL. The concentration at 1.5 h [8] was 4260 ng/mL, the concentration at 2 h [8] was 4810 ng/mL and the concentration at 2.5 h [8] was 6060 ng/mL. For the same compound, the concentration at 3 h [8] was 7480 ng/mL.
